Test system: 435261-313-R-J1-PDC tumor spheroid viability
Assay: Anticancer human tumor 435261-313-R-J1-PDC patient-derived colon adenocarcinoma cell line growth inhibition [PI3K]
Settings: spheroids with HUVEC and MSC; for IC50: curve of first compound; for viability, T/C: stronger effect = lower value
Source text: Combinatorial screen of targeted agents with the PI3K inhibitors inavolisib, alpelisib, duvelisib, and copanlisib in multi-cell type tumor spheroids
A high-throughput screen of multi-cell type tumor spheroids was designed to identify active combinations of targeted small molecules and PI3K pathway inhibitors. Complex spheroids include a stromal component modeled by human endothelial cells (HUVEC) and fibroblasts modeled by human mesenchymal stem cells (MSCs). The concentration ranges selected for each drug and investigational agent were based upon clinically achievable concentrations if the clinical Cmax of the agent was known.
Compounds. The drugs and investigational agents: inavolisib (NSC800729), alpelisib (NSC765974), duvelisib (NSC772469), copanlisib (NSC816437), ipatasertib (NSC767898), afuresertib (NSC778305), talazoparib (NSC767125), sapanisertib (NSC764658), selumetinib (NSC741078), tovorafenib (DAY101, NSC766906), vemurafenib (NSC761431), ravoxertinib (NSC781343), sotorasib (NSC818433), MRTX1133 (NSC 836407), abemaciclib (NSC 768073), palbociclib (NSC758247), venetoclax (NSC 766270), SY5609 (NSC837396), enzalutamide (NSC755605), and darolutamide (NSC825331), were obtained from the National Cancer Institute (NCI) Developmental Therapeutics Program Chemical Repository. The FDA-approved anticancer drug set is available from the NCI Developmental Therapeutics Program. […] The stock solutions were prepared in dimethyl sulfoxide (DMSO, Sigma-Aldrich, St. Louis, MO, cat. D2650) at 800-fold the tested concentration and stored at -70 degrees C prior to their use. All drugs and investigational agents were tested over a range starting from a high concentration at or near the clinical Cmax and decreasing in half-log increments. If the clinical Cmax for an agent had not been determined, the highest concentration tested was 10 microM.
Cell Culture. All cells were maintained in an incubator at 37 degrees C and 5% CO2 with 95% humidity. The PDC lines were cultured according to standard operating procedures established by the NCI PDMR (https://pdmr.cancer.gov/sops/default.htm). All PDCs were thawed and cultured in Matrigel-coated flasks prepared with a working solution of 1X Ham's F-12 nutrient mix, without supplementation (Invitrogen, Waltham, MA, cat. 11765054), 100 U/mL penicillin-streptomycin (Invitrogen, cat. 15140122), and 2.5% Matrigel (Corning Inc., Corning, NY, cat. 354248) for the first three passages. The 354836-022-R-J1-PDC, 475296-252-R-J1-PDC, and 997726-040-R-J2-PDC lines were cultured in 6A media, which includes advanced DMEM/F-12 (Thermo Fisher Scientific, cat. 12634028), 10 mM HEPES (Thermo Fisher Scientific, cat. 15630080), 1X GlutaMAX supplement (Thermo Fisher Scientific, cat. 35050061), 0.1 mg/mL primocin (InvivoGen, San Diego, CA, cat. ant-pm-2), 10% defined fetal bovine serum, heat inactivated (HyClone Laboratories Inc., Logan, UT, cat. SH30070.03HI), 50% L-WRN conditioned media (ATCC, cat. CRL-3276), 1.25 mM N-Acetyl-L-cysteine (Sigma-Aldrich, cat. A9165), 10 mM nicotinamide (Sigma-Aldrich, cat. N0636), 1X B-27 supplement (Thermo Fisher Scientific, cat. 17504044), 1X N-2 supplement (Thermo Fisher Scientific, cat. 17502048), and 10 microM Y-27632 dihydrochloride (Tocris Bioscience, Bristol, United Kingdom, cat. 1254). The 624824-186-R-J2-PDC line was cultured in 6C/Colon 1B media, which includes all 6A media components plus 50 ng/mL human EGF recombinant protein (Thermo Fisher Scientific, cat. PHG0311). […]

[1] = second compound 0.00316 µM, first compound 0.0316 µM
[2] = second compound 0.00316 µM, first compound 0.1 µM
[3] = second compound 0.00316 µM, first compound 0.316 µM
[4] = second compound 0.00316 µM, first compound 1 µM
[5] = second compound 0.00316 µM, first compound 3.16 µM
[6] = second compound 0.00316 µM, first compound 10 µM
[7] = second compound 0.01 µM, first compound 0.0316 µM
[8] = second compound 0.01 µM, first compound 0.1 µM
[9] = second compound 0.01 µM, first compound 0.316 µM
[10] = second compound 0.01 µM, first compound 1 µM
[11] = second compound 0.01 µM, first compound 3.16 µM
[12] = second compound 0.01 µM, first compound 10 µM
[13] = second compound 0.0316 µM, first compound 0.0316 µM
[14] = second compound 0.0316 µM, first compound 0.1 µM
[15] = second compound 0.0316 µM, first compound 0.316 µM
[16] = second compound 0.0316 µM, first compound 1 µM
[17] = second compound 0.0316 µM, first compound 3.16 µM
[18] = second compound 0.0316 µM, first compound 10 µM
[19] = second compound 0.1 µM, first compound 0.0316 µM
[20] = second compound 0.1 µM, first compound 0.1 µM
[21] = second compound 0.1 µM, first compound 0.316 µM
[22] = second compound 0.1 µM, first compound 1 µM
[23] = second compound 0.1 µM, first compound 3.16 µM
[24] = second compound 0.1 µM, first compound 10 µM
[25] = second compound 0.316 µM, first compound 0.0316 µM
[26] = second compound 0.316 µM, first compound 0.1 µM
[27] = second compound 0.316 µM, first compound 0.316 µM
[28] = second compound 0.316 µM, first compound 1 µM
[29] = second compound 0.316 µM, first compound 3.16 µM
[30] = second compound 0.316 µM, first compound 10 µM
[31] = second compound 1 µM, first compound 0.0316 µM
[32] = second compound 1 µM, first compound 0.1 µM
[33] = second compound 1 µM, first compound 0.316 µM
[34] = second compound 1 µM, first compound 1 µM
[35] = second compound 1 µM, first compound 3.16 µM
[36] = second compound 1 µM, first compound 10 µM

**Q.** For `Cn1ncc(Cl)c1-c1cc(C(=O)NC(CN)Cc2cccc(F)c2)sc1Cl` (centres undefined) + CC(Nc1ccc2c(c1)OCCn1cc(N3C(=O)OCC3C(F)F)nc1-2)C(N)=O, which IC50 (second compound 0.00316 µM) is on record?
**A.** 567 nM

**Q.** And the IC50 (second compound 0.01 µM)?
**A.** 447 nM

**Q.** And the IC50 (second compound 0.0316 µM)?
**A.** 225 nM

**Q.** What about the IC50 (second compound 0.1 µM) of the same molecule?
**A.** 31.9 nM

**Q.** What about the IC50 (second compound 0.316 µM) of the same molecule?
**A.** < 31.6 nM

**Q.** What about the IC50 (second compound 1 µM) of the same molecule?
**A.** < 31.6 nM

**Q.** And the viability, T/C [1]?
**A.** 75.2%

**Q.** And the viability, T/C [2]?
**A.** 84.9%

**Q.** And the viability, T/C [3]?
**A.** 67.3%

**Q.** And the viability, T/C [4]?
**A.** 31.6%

**Q.** And the viability, T/C [5]?
**A.** 18.7%

**Q.** What about the viability, T/C [6] of the same molecule?
**A.** 7.28%

**Q.** And the viability, T/C [7]?
**A.** 67.9%

**Q.** And the viability, T/C [8]?
**A.** 92.8%

**Q.** And the viability, T/C [9]?
**A.** 51.9%

**Q.** And the viability, T/C [10]?
**A.** 31.2%

**Q.** And the viability, T/C [11]?
**A.** 19.1%

**Q.** And the viability, T/C [12]?
**A.** 6.44%

**Q.** What about the viability, T/C [13] of the same molecule?
**A.** 67.8%

**Q.** And the viability, T/C [14]?
**A.** 91.3%

**Q.** And the viability, T/C [15]?
**A.** 37.5%

**Q.** What about the viability, T/C [16] of the same molecule?
**A.** 25.3%

**Q.** And the viability, T/C [17]?
**A.** 17.2%

**Q.** What about the viability, T/C [18] of the same molecule?
**A.** 5.79%

**Q.** What about the viability, T/C [19] of the same molecule?
**A.** 50.8%

**Q.** What about the viability, T/C [20] of the same molecule?
**A.** 38%

**Q.** What about the viability, T/C [21] of the same molecule?
**A.** 21.1%

**Q.** And the viability, T/C [22]?
**A.** 19.4%

**Q.** What about the viability, T/C [23] of the same molecule?
**A.** 15.4%

**Q.** What about the viability, T/C [24] of the same molecule?
**A.** 5.16%

**Q.** What about the viability, T/C [25] of the same molecule?
**A.** 20.9%

**Q.** What about the viability, T/C [26] of the same molecule?
**A.** 20.1%

**Q.** And the viability, T/C [27]?
**A.** 14%

**Q.** And the viability, T/C [28]?
**A.** 16.5%

**Q.** And the viability, T/C [29]?
**A.** 13%

**Q.** And the viability, T/C [30]?
**A.** 4.44%

**Q.** What about the viability, T/C [31] of the same molecule?
**A.** 18.2%

**Q.** What about the viability, T/C [32] of the same molecule?
**A.** 13.5%

**Q.** And the viability, T/C [33]?
**A.** 15.7%

**Q.** And the viability, T/C [34]?
**A.** 17.2%

**Q.** What about the viability, T/C [35] of the same molecule?
**A.** 11.4%

**Q.** And the viability, T/C [36]?
**A.** 2.55%

**Q.** `Cn1nccc1Nc1nccc(-c2ccn(C(CO)c3ccc(Cl)c(F)c3)c(=O)c2)n1` (centres undefined) + COc1c(OCCCN2CCOCC2)ccc2c3n(c(=NC(=O)c4cnc(N)nc4)nc12)CCN3 was tested. Which IC50 (second compound 0.00316 µM) did it give?
**A.** 238 nM

**Q.** And the IC50 (second compound 0.01 µM)?
**A.** 97.3 nM

**Q.** And the IC50 (second compound 0.0316 µM)?
**A.** < 31.6 nM

**Q.** And the IC50 (second compound 0.1 µM)?
**A.** < 31.6 nM

**Q.** What about the IC50 (second compound 0.316 µM) of the same molecule?
**A.** < 31.6 nM

**Q.** And the IC50 (second compound 1 µM)?
**A.** < 31.6 nM

**Q.** What about the viability, T/C [1] of the same molecule?
**A.** 70.2%

**Q.** And the viability, T/C [2]?
**A.** 56.1%

**Q.** And the viability, T/C [3]?
**A.** 47.6%

**Q.** And the viability, T/C [4]?
**A.** 32.4%

**Q.** What about the viability, T/C [5] of the same molecule?
**A.** 34.9%

**Q.** What about the viability, T/C [6] of the same molecule?
**A.** 13.1%

**Q.** What about the viability, T/C [7] of the same molecule?
**A.** 64.3%

**Q.** What about the viability, T/C [8] of the same molecule?
**A.** 48.8%

**Q.** What about the viability, T/C [9] of the same molecule?
**A.** 38.8%

**Q.** What about the viability, T/C [10] of the same molecule?
**A.** 26.3%

**Q.** What about the viability, T/C [11] of the same molecule?
**A.** 22.4%

**Q.** What about the viability, T/C [12] of the same molecule?
**A.** 14.3%

**Q.** And the viability, T/C [13]?
**A.** 31.7%

**Q.** And the viability, T/C [14]?
**A.** 28.7%

**Q.** What about the viability, T/C [15] of the same molecule?
**A.** 17.7%

**Q.** And the viability, T/C [16]?
**A.** 17.9%

**Q.** What about the viability, T/C [17] of the same molecule?
**A.** 17.3%

**Q.** What about the viability, T/C [18] of the same molecule?
**A.** 9.88%

**Q.** And the viability, T/C [19]?
**A.** 17.7%

**Q.** What about the viability, T/C [20] of the same molecule?
**A.** 13.6%

**Q.** And the viability, T/C [21]?
**A.** 10.8%

**Q.** And the viability, T/C [22]?
**A.** 8.53%

**Q.** And the viability, T/C [23]?
**A.** 5.16%

**Q.** And the viability, T/C [24]?
**A.** 1.19%

**Q.** What about the viability, T/C [25] of the same molecule?
**A.** 9.14%

**Q.** What about the viability, T/C [26] of the same molecule?
**A.** 5.37%

**Q.** What about the viability, T/C [27] of the same molecule?
**A.** 3.27%

**Q.** What about the viability, T/C [28] of the same molecule?
**A.** 2.55%

**Q.** And the viability, T/C [29]?
**A.** 0.85%

**Q.** And the viability, T/C [30]?
**A.** 0.46%

**Q.** What about the viability, T/C [31] of the same molecule?
**A.** 4.18%

**Q.** And the viability, T/C [32]?
**A.** 2.97%

**Q.** And the viability, T/C [33]?
**A.** 1.36%

**Q.** What about the viability, T/C [34] of the same molecule?
**A.** 1.15%

**Q.** And the viability, T/C [35]?
**A.** 0.78%

**Q.** What about the viability, T/C [36] of the same molecule?
**A.** 0.48%
